Source: patent publication US9512107B2, “Therapeutically active compositions and their methods of use” (Agios Pharmaceuticals, Inc., priority 2012, dated 2016)
Substitutions are numbered along the chain they refer to.

Key:
[1] = test system: U87MG pLVX-IDH2 R140Q-neo cells; experiment: U87MG pLVX-IDH2 R140Q-neo cell based assay, 2-HG in media by LC-MS at 48 hours; settings: Homo sapiens, U-87 MG
How it was run: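 2-HG secreted into the medium was measured by LC-MS after 48 h of compound treatment (0.2% DMSO final) of U87MG pLVX-IDH2 R140Q-neo cells in DMEM/10% FBS. The same wells were assayed at 72 h by CellTiter-Glo luminescence for effects on growth.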

IDH2 R172K = target: T1, IDH2 R172K (Homo sapiens, UniProt P48735, R172K); experiment: IDH2 R172K enzymatic assay (NADPH cofactor depletion, diaphorase/resazurin readout); assay type: biochemical; settings: read-out: Enz R172K
T1 sequence (P48735 40-452 R172K): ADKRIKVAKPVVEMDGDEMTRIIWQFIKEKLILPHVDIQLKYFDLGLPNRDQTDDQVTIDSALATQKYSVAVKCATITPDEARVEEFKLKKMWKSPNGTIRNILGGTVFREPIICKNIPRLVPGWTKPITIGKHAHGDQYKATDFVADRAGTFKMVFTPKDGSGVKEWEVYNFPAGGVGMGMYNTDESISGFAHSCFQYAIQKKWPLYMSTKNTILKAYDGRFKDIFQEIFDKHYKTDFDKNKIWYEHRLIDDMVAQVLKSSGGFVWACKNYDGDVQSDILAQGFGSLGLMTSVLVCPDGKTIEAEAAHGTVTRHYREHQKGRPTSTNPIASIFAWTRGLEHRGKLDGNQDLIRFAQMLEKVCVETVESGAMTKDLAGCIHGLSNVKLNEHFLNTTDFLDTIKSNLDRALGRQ
How it was run: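 Cofactor depletion format: enzyme + compound 1 h RT; add substrate mix (50 μM NADPH, 6.3 mM α-KG); react 1 h RT; quench with stop mix (36 μg/ml diaphorase, 60 μM resazurin); read resorufin fluorescence as residual NADPH.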

IDH2 R140Q = target: T2, IDH2 R140Q (Homo sapiens, UniProt P48735, R140Q); experiment: IDH2 R140Q enzymatic assay (cofactor depletion, similar format); assay type: biochemical; settings: read-out: Enz R140Q
T2 sequence (P48735 40-452 R140Q): T1 sequence (P48735 40-452 R172K) with R101Q, K133R

SMILES | IC50 [1] | IC50 (IDH2 R172K) | IC50 (IDH2 R140Q)
COc1cccc(-c2nc(Nc3ccnc(C(F)(F)F)c3)nc(NC3COC3)n2)c1F [Compound 624, 6-(2-Fluoro-3-methoxy-phenyl)-N-oxetan-3-yl-N′-(2-trifluoromethyl-pyridin-4-yl)-[1,3,5]triazine-2,4-diamine] | < 100 nM | 100 to 1000 nM | 100 to 1000 nM
Fc1cncc(Nc2nc(NC3COC3)nc(-c3ccccc3F)n2)c1 [Compound 625, 6-(2-Fluoro-phenyl)-N-(5-fluoro-pyridin-3-yl)-N′-oxetan-3-yl-[1,3,5]triazine-2,4-diamine] | < 100 nM | 100 to 1000 nM | < 100 nM
Fc1ccc(Nc2nc(NC3COC3)nc(-c3ccccc3F)n2)cn1 [Compound 626, 6-(2-Fluoro-phenyl)-N-(6-fluoro-pyridin-3-yl)-N′-oxetan-3-yl-[1,3,5]triazine-2,4-diamine] | 100 to 1000 nM | 1000 to 10000 nM | 100 to 1000 nM
Fc1ccccc1-c1nc(Nc2ccnc(C(F)(F)F)c2)nc(NC2COC2)n1 [Compound 627, 6-(2-Fluoro-phenyl)-N-oxetan-3-yl-N′-(2-trifluoromethyl-pyridin-4-yl)-[1,3,5]triazine-2,4-diamine] | < 100 nM | < 100 nM | < 100 nM
Fc1cc(Nc2nc(NC3COC3)nc(-c3ccccc3F)n2)ccn1 [Compound 628, 6-(2-Fluoro-phenyl)-N-(2-fluoro-pyridin-4-yl)-N′-oxetan-3-yl-[1,3,5]triazine-2,4-diamine] | < 100 nM | 100 to 1000 nM | < 100 nM
Fc1ccccc1-c1nc(Nc2cncc(C(F)(F)F)c2)nc(NC2COC2)n1 [Compound 629, 6-(2-Fluoro-phenyl)-N-oxetan-3-yl-N′-(5-trifluoromethyl-pyridin-3-yl)-[1,3,5]triazine-2,4-diamine] | < 100 nM | < 100 nM | < 100 nM
COc1ccc(F)c(-c2nc(Nc3ccnc(C(F)(F)F)c3)nc(NC(C)C)n2)c1 [Compound 630, 6-(2-Fluoro-5-methoxy-phenyl)-N-isopropyl-N′-(2-trifluoromethyl-pyridin-4-yl)-[1,3,5]triazine-2,4-diamine] | < 100 nM | < 100 nM | < 100 nM
COc1cccc(-c2nc(Nc3ccnc(C(F)(F)F)c3)nc(NC(C)C)n2)c1F [Compound 631, 6-(2-Fluoro-3-methoxy-phenyl)-N-isopropyl-N′-(2-trifluoromethyl-pyridin-4-yl)-[1,3,5]triazine-2,4-diamine] | < 100 nM | < 100 nM | < 100 nM
CC(C)Nc1nc(Nc2ccnc(C(C)(C)O)c2)nc(-c2ccccc2F)n1 [Compound 632, 2-(4-((4-(2-fluorophenyl)-6-(isopropylamino)-1,3,5-triazin-2-yl)amino)pyridin-2-yl)propan-2-ol] | < 100 nM | 100 to 1000 nM | 100 to 1000 nM
CC(C)Nc1nc(Nc2ccnc(C(F)(F)F)c2)nc(-c2cccc(O)c2F)n1 [Compound 633, 2-Fluoro-3-[4-isopropylamino-6-(2-trifluoromethyl-pyridin-4-ylamino)-[1,3,5]triazin-2-yl]-phenol] | < 100 nM | < 100 nM | 100 to 1000 nM
CC(C)Nc1nc(Nc2ccnc(C(F)(F)F)c2)nc(-c2cc(O)ccc2F)n1 [Compound 634, 4-Fluoro-3-[4-isopropylamino-6-(2-trifluoromethyl-pyridin-4-ylamino)-[1,3,5]triazin-2-yl]-phenol] | < 100 nM | < 100 nM | 100 to 1000 nM
COc1ccc(F)c(-c2nc(Nc3ccnc(C(F)(F)F)c3)nc(NC3COC3)n2)c1 [Compound 635, 6-(2-Fluoro-5-methoxy-phenyl)-N-oxetan-3-yl-N′-(2-trifluoromethyl-pyridin-4-yl)-[1,3,5]triazine-2,4-diamine] | 100 to 1000 nM | 100 to 1000 nM | 100 to 1000 nM
Fc1cc(Nc2nc(NC3[C@H]4COC[C@@H]34)nc(-c3ccccc3F)n2)ccn1 (stereo partly drawn) [Compound 636, 6-(2-Fluoro-phenyl)-N-(2-fluoro-pyridin-4-yl)-N′-(3-oxa-bicyclo[3.1.6]hex-6-yl)-[1,3,5]triazine-2,4-diamine] | < 100 nM | 100 to 1000 nM | < 100 nM
Fc1ccc(Nc2nc(NC3[C@H]4COC[C@@H]34)nc(-c3ccccc3F)n2)cn1 (stereo partly drawn) [Compound 637, 6-(2-Fluoro-phenyl)-N-(6-fluoro-pyridin-3-yl)-N′-(3-oxa-bicyclo[3.1.0]hex-6-yl)-[1,3,5]triazine-2,4-diamine] | < 100 nM | 100 to 1000 nM | 100 to 1000 nM
Fc1cncc(Nc2nc(NC3[C@H]4COC[C@@H]34)nc(-c3ccccc3F)n2)c1 (stereo partly drawn) [Compound 638, 6-(2-Fluoro-phenyl)-N-(5-fluoro-pyridin-3-yl)-N′-(3-oxa-bicyclo[3.1.0]hex-6-yl)-[1,3,5]triazine-2,4-diamine] | < 100 nM | 100 to 1000 nM | 100 to 1000 nM
CC(C)Nc1nc(Nc2ccnc(C(F)(F)F)c2)nc(-c2cccc(CO)c2)n1 [Compound 639, {3-[4-Isopropylamino-6-(2-trifluoromethyl-pyridin-4-ylamino)-[1,3,5]triazin-2-yl]-phenyl}-methanol] | < 100 nM | < 100 nM | 100 to 1000 nM
CC(C)Nc1nc(Nc2ccnc(C(F)(F)F)c2)nc(-c2cccc(O)c2)n1 [Compound 640, 3-[4-Isopropylamino-6-(2-trifluoromethyl-pyridin-4-ylamino)-[1,3,5]triazin-2-yl]-phenol] | < 100 nM | < 100 nM | < 100 nM

Second part, the molecule after the results:

IC50 [1] | IC50 (IDH2 R172K) | IC50 (IDH2 R140Q) | SMILES
< 100 nM | < 100 nM | 100 to 1000 nM | CC(C)(O)CNc1nc(Nc2ccnc(C(F)(F)F)c2)nc(-c2cccc(O)c2)n1 [Compound 641, 3-(4-((2-hydroxy-2-methylpropyl)amino)-6-((2-(trifluoromethyl)pyridin-4-yl)amino)-1,3,5-triazin-2-yl)phenol]
< 100 nM | < 100 nM | 100 to 1000 nM | CC(C)Nc1nc(Nc2cc(F)cc(F)c2)nc(-c2cc(O)cc(O)c2)n1 [Compound 642, 5-(4-((3,5-difluorophenyl)amino)-6-(isopropylamino)-1,3,5-triazin-2-yl)benzene-1,3-diol]
< 100 nM | 100 to 1000 nM | 100 to 1000 nM | CC(C)Nc1nc(Nc2cc(F)cc(F)c2)nc(-c2ccc(N)nc2)n1 [Compound 645, 6-(6-aminopyridin-3-yl)-N2-(3,5-difluorophenyl)-N4-isopropyl-1,3,5-triazine-2,4-diamine]
< 100 nM | < 100 nM | 100 to 1000 nM | CC(C)(C)Nc1nc(Nc2cc(F)cc(S(C)(=O)=O)c2)nc(-c2cccc(O)c2)n1 [Compound 646, 3-(4-(tert-butylamino)-6-((3-fluoro-5-(methylsulfonyl)phenyl)amino)-1,3,5-triazin-2-yl)phenol]
< 100 nM | 100 to 1000 nM | 100 to 1000 nM | CC(C)Nc1nc(Nc2ccnc(C(F)(F)F)c2)nc(-c2cc(F)cc(Cl)c2)n1 [Compound 647, 6-(3-chloro-5-fluorophenyl)-N2-isopropyl-N4-(2-(trifluoromethyl)pyridin-4-yl)-1,3,5-triazine-2,4-diamine]
< 100 nM | 100 to 1000 nM | 100 to 1000 nM | COc1ncccc1-c1nc(Nc2ccnc(C(F)(F)F)c2)nc(NC(C)C)n1 [Compound 648, N2-isopropyl-6-(2-methoxypyridin-3-yl)-N4-(2-(trifluoromethyl)pyridin-4-yl)-1,3,5-triazine-2,4-diamine]
100 to 1000 nM | 100 to 1000 nM | < 100 nM | CC(C)Nc1nc(Nc2cc(F)cc(F)c2)nc(-c2cnc(N)nc2)n1 [Compound 649, 6-(2-aminopyrimidin-5-yl)-N2-(3,5-difluorophenyl)-N4-isopropyl-1,3,5-triazine-2,4-diamine]
100 to 1000 nM | 1000 to 10000 nM | 100 to 1000 nM | CC(C)Nc1nc(Nc2ccnc(C(F)(F)F)c2)nc(-c2cccc(=O)[nH]2)n1 [Compound 650, 6-(4-(isopropylamino)-6-((2-(trifluoromethyl)pyridin-4-yl)amino)-1,3,5-triazin-2-yl)pyridin-2(1H)-one]
< 100 nM | 100 to 1000 nM | 100 to 1000 nM | CC(C)Nc1nc(Nc2ccnc(C(F)(F)F)c2)nc(-c2cccc(C(N)=O)c2)n1 [Compound 651]
